From patent US7192746B2, “α-Isomaltosyltransferase, process for producing the same and use thereof” (Kabushiki Kaisha Hayashibara Seibutsu Kagaku Kenkyujo, priority 2000, dated 2007)

What was measured:
Test in all cases: Specificity to transferring acceptor
Assay type in all cases: biochemical
Parameters in all cases: key: −: no saccharide transferred product was formed; ±: a saccharide-transferred product formed in an amount of less than one percent to the total sugars; +: a saccharide-transferred product was formed in an amount of over one percent but below 10% to the total sugars; ++: a saccharide-transferred product was formed in an amount of over 10% to the total sugars
[1] = tested on: α-isomaltosyl-transferring enzyme from Arthrobacter globiformis A19; conditions: partially purified enzyme, panose as saccharide donor, 10 units/g substrate, 3.2% (w/v), 30° C., pH 6.0, 24 hours
Description: (§1) Saccharides were tested as follows to examine whether they can be used as transferring acceptors for the α-isomaltosyl-transferring enzyme of the present invention. A solution of D-glucose, D-xylose, L-xylose, D-galactose, D-fructose, D-mannose, D-arabinose, D-fucose, L-sorbose, L-rhamnose, methyl-α-glucoside (or methyl-α-glucopyranoside), methyl-β-glucoside (or methyl-β-glucopyranoside), N-acetyl-D-glucosamine, D-ribose, L-ribose, D-psicose, sorbitol, xylitol, mannitol, arabitol, ribitol, erythritol, maltose, maltotriose, maltotetraose, maltopentaose, isomaltose, isomaltotriose, α,α-trehalose, α,β-trehalose, kojibiose, nigerose, cellobiose, gentibiose, isopanose, maltitol, maltotriitol, lactose, sucrose, erlose, isomaltosylglucoside, α-cyclodextrin, β-cyclodextrin, γ-cyclodextrin, or L-ascorbic acid was prepared. To each solution was added panose as a saccharide donor to give an equal concentration, admixed with 10 units/g substrate of a purified specimen of either α-isomaltosyl-transferring enzyme from Bacillus globisporus C9 obtained by the method in Experiment 4, Bacillus globisporus C11 obtained by the method in Experiment 7, Bacillus globisporus N75 obtained by the method in Experiment 11, or Arthrobacter ramosus S1 obtained by the method in Experiment 15, or a partially purified specimen of α-isomaltosyl-transferring enzyme from Arthrobacter globiformis A19 obtained by the method in Experiment 18, followed by adjusting the saccharide concentration to 3.2% (w/v). The mixtures thus obtained were enzymatically reacted at 30° C. and Ph 6.0 for 24 hours. The saccharide composition of the resulting reaction mixtures were analyzed on gas chromatography (abbreviated as “GLC” hereinafter) for monosaccharides and disaccharides as testing saccharides, and on HPLC for tri- or higher-saccharides as testing saccharides to confirm whether these saccharides can be used as transferring acceptors for the above enzymes with an index of the positive or negative formation of a saccharide transferred product. In performing GLC, the following apparatuses and conditions were used: GLC apparatus, “GC-16A” commercialized by Shimadzu Corporation, Tokyo, Japan; column, a stainless-steel column, 3 mm in diameter and 2 m in length, packed with 2% “SILICONE OV-17/[…]”, commercialized by GL Sciences Inc., Tokyo, Japan; carrier gas, nitrogen gas at a flow rate of 40 ml/min under temperature conditions of increasing from 160° C. to 320° C. at an increasing temperature rate of 7.5° C./min; and detection, a hydrogen flame ionization detector. In the case of HPLC analysis, the apparatuses and conditions used were: HPLC apparatus, “CCPD” commercialized by Tosoh Corporation, Tokyo, Japan; column, “ODS-AQ-303” commercialized by YMC Co., Ltd., Tokyo, Japan; eluent, water at a flow rate of 0.5 ml/min; and detection, a differential refractometer.

[2] = tested on: α-isomaltosyl-transferring enzyme from Arthrobacter ramosus S1; conditions: panose as saccharide donor, 10 units/g substrate, 3.2% (w/v), 30° C., pH 6.0, 24 hours
Description: as §1

[3] = tested on: α-isomaltosyl-transferring enzyme from Bacillus globisporus C11; conditions: panose as saccharide donor, 10 units/g substrate, 3.2% (w/v), 30° C., pH 6.0, 24 hours
Description: as §1

[4] = tested on: α-isomaltosyl-transferring enzyme from Bacillus globisporus C9; conditions: panose as saccharide donor, 10 units/g substrate, 3.2% (w/v), 30° C., pH 6.0, 24 hours
Description: as §1

[5] = tested on: α-isomaltosyl-transferring enzyme from Bacillus globisporus N75; conditions: panose as saccharide donor, 10 units/g substrate, 3.2% (w/v), 30° C., pH 6.0, 24 hours
Description: as §1

Molecule	Product of transferring reaction, Enzyme of Stain A19 [1]	Product of transferring reaction, Enzyme of Strain S1 [2]	Product of transferring reaction, Enzyme of Strain C11 [3]	Product of transferring reaction, Enzyme of Strain C9 [4]	Product of transferring reaction, Enzyme of Strain N75 [5]
OC[C@@H](O)[C@@H](O)[C@H](O)[C@@H](O)CO [Sorbitol, sorbitol]	± (a saccharide-transferred product formed in an amount of less than one percent to the total sugars)	± (a saccharide-transferred product formed in an amount of less than one percent to the total sugars)	−	−	−
OC[C@@H](O)[C@@H](O)[C@H](O)[C@H](O)CO [Mannitol, mannitol]	−	−	−	−	−
O=C[C@H](O)[C@H](O)[C@H](O)CO [D-Ribose, D-ribose]	± (a saccharide-transferred product formed in an amount of less than one percent to the total sugars)	+ (a saccharide-transferred product was formed in an amount of over one percent but below 10% to the total sugars)	−	−	−
C[C@@H](O)[C@H](O)[C@H](O)[C@@H](O)C=O [D-Fucose, D-fucose]	± (a saccharide-transferred product formed in an amount of less than one percent to the total sugars)	+ (a saccharide-transferred product was formed in an amount of over one percent but below 10% to the total sugars)	± (a saccharide-transferred product formed in an amount of less than one percent to the total sugars)	± (a saccharide-transferred product formed in an amount of less than one percent to the total sugars)	± (a saccharide-transferred product formed in an amount of less than one percent to the total sugars)
O=C[C@H](O)[C@@H](O)[C@H](O)CO [D-Xylose, D-xylose]	++ (a saccharide-transferred product was formed in an amount of over 10% to the total sugars)	++ (a saccharide-transferred product was formed in an amount of over 10% to the total sugars)	++ (a saccharide-transferred product was formed in an amount of over 10% to the total sugars)	++ (a saccharide-transferred product was formed in an amount of over 10% to the total sugars)	++ (a saccharide-transferred product was formed in an amount of over 10% to the total sugars)
O=C[C@H](O)[C@@H](O)[C@H](O)[C@H](O)CO [D-Glucose, D-glucose]	++ (a saccharide-transferred product was formed in an amount of over 10% to the total sugars)	++ (a saccharide-transferred product was formed in an amount of over 10% to the total sugars)	++ (a saccharide-transferred product was formed in an amount of over 10% to the total sugars)	++ (a saccharide-transferred product was formed in an amount of over 10% to the total sugars)	++ (a saccharide-transferred product was formed in an amount of over 10% to the total sugars)
OC[C@H]1O[C@@](CO)(O[C@H]2O[C@H](CO)[C@@H](O[C@H]3O[C@H](CO)[C@@H](O)[C@H](O)[C@H]3O)[C@H](O)[C@H]2O)[C@@H](O)[C@@H]1O [Erlose, erlose]	+ (a saccharide-transferred product was formed in an amount of over one percent but below 10% to the total sugars)	+ (a saccharide-transferred product was formed in an amount of over one percent but below 10% to the total sugars)	+ (a saccharide-transferred product was formed in an amount of over one percent but below 10% to the total sugars)	+ (a saccharide-transferred product was formed in an amount of over one percent but below 10% to the total sugars)	+ (a saccharide-transferred product was formed in an amount of over one percent but below 10% to the total sugars)
OC[C@@H](O)[C@@H](O)CO [Erythritol, erythritol]	± (a saccharide-transferred product formed in an amount of less than one percent to the total sugars)	+ (a saccharide-transferred product was formed in an amount of over one percent but below 10% to the total sugars)	+ (a saccharide-transferred product was formed in an amount of over one percent but below 10% to the total sugars)	+ (a saccharide-transferred product was formed in an amount of over one percent but below 10% to the total sugars)	+ (a saccharide-transferred product was formed in an amount of over one percent but below 10% to the total sugars)
CC(=O)N[C@H]1C(O)O[C@H](CO)[C@@H](O)[C@@H]1O (stereo partly drawn) [N-Acetyl-glucosamine, N-acetyl-D-glucosamine]	−	−	−	−	−
CO[C@@H]1O[C@H](CO)[C@@H](O)[C@H](O)[C@H]1O [Methyl-β-glucoside, methyl-β-glucoside]	+ (a saccharide-transferred product was formed in an amount of over one percent but below 10% to the total sugars)	+ (a saccharide-transferred product was formed in an amount of over one percent but below 10% to the total sugars)	++ (a saccharide-transferred product was formed in an amount of over 10% to the total sugars)	++ (a saccharide-transferred product was formed in an amount of over 10% to the total sugars)	++ (a saccharide-transferred product was formed in an amount of over 10% to the total sugars)
isomaltosylglucoside	++ (a saccharide-transferred product was formed in an amount of over 10% to the total sugars)	++ (a saccharide-transferred product was formed in an amount of over 10% to the total sugars)	++ (a saccharide-transferred product was formed in an amount of over 10% to the total sugars)	++ (a saccharide-transferred product was formed in an amount of over 10% to the total sugars)	++ (a saccharide-transferred product was formed in an amount of over 10% to the total sugars)
